Source: ChEMBL document CHEMBL3994649, “Piceatannol, a natural trans-stilbene compound, inhibits human glyoxalase I” (Bioorg Med Chem Lett, 2017)
The source made the active and inactive calls. The calls are words filed in the database; no cut-off is given here.

Key:
[1] = target: T1, Lactoylglutathione lyase (Homo sapiens, UniProt Q04760); assay: Inhibition of human N-terminal His6-tagged GLO1 expressed in baculovirus infected sf21 cells assessed as reduction in S-D-lactoylglutathione formation at 100 uM measured for 5 mins in presence of glutathione by spectrophotometric method
Target sequence in this assay (Q04760 2-184 limits assumed): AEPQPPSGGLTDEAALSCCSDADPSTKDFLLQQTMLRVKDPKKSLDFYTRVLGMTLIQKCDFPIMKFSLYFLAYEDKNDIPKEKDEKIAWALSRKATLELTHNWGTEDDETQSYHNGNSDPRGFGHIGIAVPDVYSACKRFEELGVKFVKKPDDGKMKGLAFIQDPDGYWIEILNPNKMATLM

[2] = target: T1, Lactoylglutathione lyase; assay: Inhibition of human N-terminal His6-tagged GLO1 expressed in baculovirus infected sf21 cells assessed as reduction in S-D-lactoylglutathione formation measured for 5 mins in presence of glutathione by spectrophotometric method
Target sequence in this assay (Q04760 whole entry): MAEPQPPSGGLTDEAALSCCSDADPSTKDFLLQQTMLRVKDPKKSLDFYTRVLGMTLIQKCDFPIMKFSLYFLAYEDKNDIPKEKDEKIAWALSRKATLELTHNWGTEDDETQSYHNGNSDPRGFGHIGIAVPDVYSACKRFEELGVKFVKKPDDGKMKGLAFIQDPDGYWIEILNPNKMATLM

[3] = system: NCI-H522; assay: Antiproliferative activity against human NCI-H522 cells after 24 hrs by WST8 assay; format: functional, cell-based; settings: NCI-H522, 24 h
[4] = system: NCI-H522; assay: Antiproliferative activity against human NCI-H522 cells after 48 hrs by WST8 assay; format: functional, cell-based; settings: NCI-H522, 48 h
[5] = system: NCI-H522; assay: Antiproliferative activity against human NCI-H522 cells after 72 hrs by WST8 assay; format: functional, cell-based; settings: NCI-H522, 72 h
[6] = system: NCI-H460; assay: Antiproliferative activity against human NCI-H460 cells at 50 uM after 24 to 72 hrs by WST8 assay; format: functional, cell-based
[7] = system: NCI-H522; assay: Antiproliferative activity against human NCI-H522 cells overexpressing human GLO1 at 10 to 30 uM after 72 hrs by WST8 assay; format: functional, cell-based
[8] = target: T1, Lactoylglutathione lyase; assay: Potency index, ratio of baicalein IC50 to compound IC50 for human N-terminal His6-tagged GLO1 expressed in baculovirus infected sf21 cells
Target sequence in this assay (Q04760 2-184 limits assumed): as the sequence (Q04760 2-184 limits assumed) above

Structure (SMILES): Oc1cc(O)cc(/C=C/c2ccc(O)c(O)c2)c1 [PICEATANNOL]
- inhibition [1]: Active
- IC50 [2]: 0.76 µM
- EC50 [3]: 53 µM
- EC50 [4]: 23 µM
- EC50 [5]: 17 µM
- Activity [6]: inactive
- Activity [7]: inactive
- Ratio IC50 [8]: 14

Structure (SMILES): COc1cc(/C=C/c2ccc(OC)c(OC)c2)cc(OC)c1
- inhibition [1]: Active
